According to PubChem BioAssay (NCI):
Several values for one entry are separate records, joined by “and”; a condition that tells them apart may be missing. Equal values may be shown once.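 Briefly, cells in 96-well plates were exposed to five compound concentrations for 48 h, and endpoints were estimated by linear interpolation. At the GI50, growth is halved. The concentration for full growth arrest is given as TGI.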

Legend:
Assay in all cases: NCI-60 cell line screen, 48 h
COLO 205 colon = system: COLO 205 colon
LOX IMVI melanoma = system: LOX IMVI melanoma
SK-MEL-5 melanoma = system: SK-MEL-5 melanoma
KM12 colon = system: KM12 colon
A498 renal = system: A498 renal
SK-MEL-28 melanoma = system: SK-MEL-28 melanoma
HCC-2998 colon = system: HCC-2998 colon
NCI/ADR-RES ovarian = system: NCI/ADR-RES ovarian
U251 CNS = system: U251 CNS
MCF7 breast = system: MCF7 breast

| Structure (SMILES) | GI50 (COLO 205 colon) | TGI (COLO 205 colon) | GI50 (LOX IMVI melanoma) | TGI (LOX IMVI melanoma) | GI50 (SK-MEL-5 melanoma) | TGI (SK-MEL-5 melanoma) | GI50 (KM12 colon) | TGI (KM12 colon) | GI50 (A498 renal) | TGI (A498 renal) | GI50 (SK-MEL-28 melanoma) | TGI (SK-MEL-28 melanoma) | GI50 (HCC-2998 colon) | TGI (HCC-2998 colon) | GI50 (NCI/ADR-RES ovarian) | TGI (NCI/ADR-RES ovarian) | GI50 (U251 CNS) | TGI (U251 CNS) | GI50 (MCF7 breast) | TGI (MCF7 breast) |
| --- | --- | --- | --- | --- | --- | --- | --- | --- | --- | --- | --- | --- | --- | --- | --- | --- | --- | --- | --- | --- |
| c1cc2c(cn1)Nc1ccncc1S2 | 11.8 µM | 59.5 µM | 33.2 µM | > 100 µM | 36.3 µM | > 100 µM | 32.3 µM | > 100 µM | 19.5 µM | 55.4 µM | > 100 µM | > 100 µM | 49.8 µM | > 100 µM | 37.1 µM | > 100 µM | 44.6 µM | > 100 µM | 32.9 µM | > 100 µM |
| CC1=C(C(=O)Nc2ccc(Cl)c(C(=O)OC(C)C)c2)SCCO1 | – | 60 µM | – | 84.6 µM | – | 81.4 µM | – | > 100 µM | – | 90.9 µM | – | 99.5 µM | – | 75 µM | – | > 91.8 µM | – | 81.3 µM | – | > 90.4 µM |
| Cc1cc([N+](=O)[O-])c2ccccc2[n+]1[O-] | 0.113 µM and 0.117 µM | 0.338 µM and 0.319 µM | 1.16 µM and 0.385 µM | 3.48 µM and 1.87 µM | 0.171 µM and 0.157 µM | 0.334 µM and 0.355 µM | 0.173 µM and 0.203 µM | 0.829 µM and 1.05 µM | 0.185 µM and 0.144 µM | 0.464 µM and 0.416 µM | 1.61 µM | 3.9 µM and 4.54 µM | 0.128 µM and 0.221 µM | 0.375 µM and 0.664 µM | 0.547 µM and 1.42 µM | 3.45 µM and 7.68 µM | 0.402 µM and 0.347 µM | 2.93 µM and 2.84 µM | 0.0489 µM and 0.0342 µM | 0.461 µM and 0.45 µM |
| CCOC(=O)c1cnc2c(C)cccc2c1Nc1ccc(C(C)=O)cc1 | 17.5 µM | 43.4 µM | 47 µM | > 100 µM | 3.75 µM | 19.7 µM | 51.2 µM | > 100 µM | 11.9 µM | 63.4 µM | 50.2 µM | > 100 µM | 53.3 µM | > 100 µM | 16.5 µM | 72.5 µM | 63.8 µM | > 100 µM | 28 µM | > 100 µM |
| CN1C(=O)C2(c3ccccc31)N(c1ccc(Cl)cc1)C(=O)C2(c1ccccc1)c1ccccc1 (stereo not given) | 37.6 µM | > 100 µM | > 100 µM | > 100 µM | 54.5 µM | > 100 µM | > 100 µM | > 100 µM | 34.3 µM | > 100 µM | > 100 µM | > 100 µM | 66 µM | > 100 µM | 34.7 µM | > 100 µM | 45.5 µM | > 100 µM | 39.6 µM | > 100 µM |
| O=C1NC(=NCCCc2ccccc2)S/C1=C\c1ccc2ncccc2c1 | 6.98 µM | > 20.7 µM | 5.12 µM | 14.6 µM | 4.63 µM | 9.8 µM | 8.84 µM | > 25 µM | 3.81 µM | 8.09 µM | 6.51 µM | 21.1 µM | 8.09 µM | > 25 µM | 6.5 µM | 17.1 µM | 2.9 µM | 10.3 µM | 4.11 µM | 11.2 µM |
| O=S(=O)(c1cnccc1N1CCN(CCO)CC1)N1CCCC1 | – | > 100 µM | – | > 100 µM | – | > 100 µM | – | > 100 µM | – | > 100 µM | – | > 100 µM | – | > 100 µM | – | > 100 µM | – | > 100 µM | – | > 100 µM |
| C=CC(=O)N1CC2(CC(n3nc(-c4ccc5c(cnn5C)c4)c(-c4c(Cl)c(C)cc5[nH]ncc45)c3C)C2)C1 | 2.1 µM | 4.17 µM | 1.69 µM | 3.55 µM | 1.61 µM | 3.02 µM | 1.92 µM | 3.72 µM | 3.99 µM | 13.3 µM | 2.44 µM | 5.44 µM | 1.85 µM | 3.36 µM | 2.23 µM | 5.21 µM | 1.89 µM | 4.07 µM | 2.2 µM | 7.03 µM |
| COC(=O)[C@H]1CCCN1C(=O)[C@H]1CCCN1C(=O)[C@H](Cc1c[nH]c2ccccc12)NC(=S)Nc1cc(C(F)(F)F)cc(C(F)(F)F)c1 | 2.08 µM | 4.28 µM | 3.19 µM | 26.3 µM | 5.14 µM | > 100 µM | 4.47 µM | > 100 µM | 6.54 µM | > 100 µM | 5.83 µM | > 100 µM | 2.42 µM | 5.96 µM | > 100 µM | > 100 µM | 4.21 µM | 61.9 µM | 2.99 µM | > 100 µM |
| C=C1C(=O)OC2/C=C(/C)C(OC(C)=O)C/C=C(\C)C(OC(=O)C3(C)OC3C)C(O)C12 (stereo not given) | – | > 100 µM | – | > 100 µM | – | > 100 µM | – | > 100 µM | – | > 100 µM | – | > 100 µM | – | > 100 µM | – | > 100 µM | – | > 100 µM | – | > 100 µM |
| O=C(CN1C(=O)S/C(=C\C(Cl)=C\c2ccccc2)C1=O)NC1C=CS(=O)(=O)C1 (stereo not given) | 1.54 µM | 3.76 µM | 0.24 µM | 0.624 µM | 1.72 µM | 3.22 µM | 1.78 µM | 4.11 µM | 1.42 µM | 4 µM | 1.81 µM | 3.9 µM | 1.95 µM | 3.75 µM | 1.99 µM | > 100 µM | 1.88 µM | 5.9 µM | 0.467 µM | > 100 µM |
| CN1CCN(CCCOc2cccc3nc(Nc4ccc(Cl)c(C(F)(F)F)c4)ccc23)CC1 | 1.72 µM | 3.35 µM | 1.56 µM | 3.07 µM | 1.69 µM | 3.13 µM | 1.74 µM | 3.24 µM | 1.68 µM | 3.54 µM | 1.39 µM | 2.81 µM | 1.91 µM | 3.44 µM | 1.73 µM | 3.37 µM | 1.49 µM | 3.23 µM | 1.41 µM | 2.99 µM |
| CCN(CC)Cc1cc2[nH]c3c4ccc(Cl)cc4ncc3c2cc1OC | 3.69 µM and 1.79 µM | 8.54 µM and 3.26 µM | 1.73 µM and 1.7 µM | 3.43 µM and 3.23 µM | 1.61 µM and 1.62 µM | 3 µM and 2.98 µM | 2.18 µM and 1.72 µM | 7.09 µM and 4.37 µM | 15.9 µM and 10 µM | 29.4 µM and 21.7 µM | 1.95 µM and 1.88 µM | 3.53 µM and 3.42 µM | 2.22 µM and 3.33 µM | 6.79 µM and 13.6 µM | 3.67 µM and 3.31 µM | 13.5 µM and 12 µM | 2.18 µM and 2.16 µM | 5.97 µM and 5.39 µM | 2.17 µM and 1.61 µM | 8.37 µM and 3.29 µM |
